This is an account of results in ChEMBL document CHEMBL1155460, “Prediction of acetylcholinesterase inhibitors and characterization of correlative molecular descriptors by machine learning methods” (Eur J Med Chem, 2010).

Usually IC50 stands for the point on the concentration scale where inhibition reaches its midpoint.

SMILES strings stand for the structures.

The target in this assay is Acetylcholinesterase (Homo sapiens, UniProt P22303).
Chain of Acetylcholinesterase (P22303 whole entry): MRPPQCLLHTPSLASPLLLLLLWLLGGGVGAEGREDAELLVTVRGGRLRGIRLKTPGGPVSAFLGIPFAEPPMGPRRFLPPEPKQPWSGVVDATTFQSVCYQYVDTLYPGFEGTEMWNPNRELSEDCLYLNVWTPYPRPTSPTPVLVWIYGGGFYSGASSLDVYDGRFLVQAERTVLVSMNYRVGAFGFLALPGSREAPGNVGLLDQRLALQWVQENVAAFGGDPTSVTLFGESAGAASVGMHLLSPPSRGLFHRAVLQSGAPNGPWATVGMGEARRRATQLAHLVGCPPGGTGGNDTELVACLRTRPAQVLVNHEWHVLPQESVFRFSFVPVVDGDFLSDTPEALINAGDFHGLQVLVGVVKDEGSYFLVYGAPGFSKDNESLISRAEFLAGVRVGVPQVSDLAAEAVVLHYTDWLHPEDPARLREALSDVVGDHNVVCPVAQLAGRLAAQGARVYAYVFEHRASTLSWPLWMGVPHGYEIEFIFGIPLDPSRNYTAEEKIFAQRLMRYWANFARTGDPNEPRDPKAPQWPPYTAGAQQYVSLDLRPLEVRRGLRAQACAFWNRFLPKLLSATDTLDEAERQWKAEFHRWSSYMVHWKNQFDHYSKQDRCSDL
`O=C(CCOCCc1c[nH]c2ccccc12)NCCCCCCNc1c2c(nc3cc(Cl)ccc13)CCCC2`: 0.7 nM corresponded to half-maximal inhibition (IC50).

Regarding `O=C(CCOCCc1c[nH]c2ccccc12)NCCCCCCCNc1c2c(nc3cc(Cl)ccc13)CCCC2`, it took 3 nM to reach half-maximal inhibition (IC50). `CCCc1cc(N2CCC=N2)ccc1C(=O)ON=C(N)c1ccc(C(F)(F)F)cc1` showed an IC50 of 13000 nM. Turning to `Nc1ccc2c(c1)c(-c1ccccc1)[n+](CCCNCCCNCCCNc1c3c(nc4ccccc14)CCCC3)c1cc(N)ccc21`, 1.49 nM corresponded to half-maximal inhibition (IC50). Compound `COc1ccccc1CN(C)CCCN(C)CCCNCCC[n+]1c(-c2ccccc2)c2cc(N)ccc2c2ccc(N)cc21` gave an IC50 of 894 nM. For the compound `O=C(CCOCCc1c[nH]c2ccccc12)NCCCCCNc1c2c(nc3cc(Cl)ccc13)CCCC2`, the IC50 turned out to be 1.5 nM. `CC(Cc1ccc(O)cc1)C1CCC(C)C(c2ccc(O)cc2)C1` (stereo unspecified) yielded an IC50 of 620 nM.

For `Cc1c(/N=C/c2ccccc2O)cc2c(c1N)C(C)(C)CC2(C)C`, the 50% inhibitory concentration (IC50) was 16000 nM. Take `Cc1nc(N)ncc1-c1nnnn1-c1ccc(-c2ccccc2)cc1`: the IC50 is 27000 nM. In turn, `Fc1ccc(N(Cc2ccc3c(c2)OCO3)C(=S)Nc2cccc(C(F)(F)F)c2)cc1` registered an IC50 of 8000 nM. In turn, `Cc1cc(C2(c3cc(C)c(O)c(C)c3)CCCCC2)cc(C)c1O` registered an IC50 of 15000 nM.

`O=C(CC1S/C(=N/c2ccc(C3CCCCC3)cc2)NC1=O)Nc1ccc(OC(F)(F)F)cc1` (stereo unspecified): the IC50 came out at 2900 nM.

For `CN(C)c1ccc(-c2c3cc(O)c(=O)cc-3oc3cc(O)c(O)cc23)cc1`, the IC50 came out at 22000 nM. Turning to `COc1ccc(/N=C/c2cn(-c3ccc(OC)cc3)cc2/C=N/c2ccc(OC)cc2)cc1`, the IC50 amounted to 14000 nM. As to `O=C(OC1Cc2c(O)cc(O)cc2OC1c1ccc(O)c(O)c1)c1cc(O)c(O)c(O)c1` (stereo unspecified), it took 28000 nM to reach half-maximal inhibition (IC50). Compound `O=C(NCCCCCCCNc1c2c(nc3cc(Cl)ccc13)CCCC2)c1n[nH]c2ccccc12` showed an IC50 of 95 nM. Consider `N#Cc1cc(-c2ccccc2)nnc1NCCN1CCOCC1` [BAZINAPRINE], for which the IC50 was 100000 nM.

As to `COc1ccccc1CN(C)CCCCCC(=O)N(C)CCCCCCCCN(C)C(=O)CCCCCN(C)Cc1ccccc1OC` [CAPROCTAMINE], inhibition was half-maximal at 104 nM (IC50).

`COc1cc(N)c(Cl)cc1C(=O)NC1CCN(Cc2ccccc2)CC1` [CLEBOPRIDE] had an IC50 of 890 nM. As to `O=C(Nc1cccc(C2=NCCN2)c1)Nc1cccc(C2=NCCN2)c1` [IMIDOCARB], the 50% inhibitory concentration (IC50) stood at 590 nM. The result for `Cc1cc(-c2ccccc2)nnc1NCCN1CCOCC1` [MINAPRINE] reads 85000 nM.
